Results reported in patent US20070128217A1 (priority 2003, published 2007).

Key:
[1] = tested on: antibodies in sera from SARS patients (sera 1a, 1b, 2, 6, 37, 62, London, SARS-yellow, SARS-green); type: binding, human; set-up: Binding of serum 6 to linear peptides of protein X1 of SARS-CoV Urbani / Binding of serum 37 to linear peptides of protein X1 of SARS-CoV Urbani / Binding of serum 6 to looped/cyclic peptide (PEPSCAN-ELISA) / Binding of serum 37 to looped/cyclic peptide (PEPSCAN-ELISA) / Binding of serum 37 to looped/cyclic peptides of protein X1 of SARS-CoV Urbani / Binding of serum 6 to linear peptides of protein X2 / Binding of serum 37 to linear peptides of protein X2 / Binding of serum 37 to looped/cyclic peptides of protein X2 of SARS-CoV Urbani / Binding of serum 6 to linear peptides of protein M of SARS-CoV Urbani / Binding of serum 37 to linear peptides of protein M of SARS-CoV Urbani / Binding of serum 6 to looped/cyclic peptides of protein M of SARS-CoV Urbani / Binding of serum 37 to looped/cyclic peptides of protein M of SARS-CoV Urbani / Binding of serum 6 to linear peptides of protein X3 of SARS-CoV Urbani / Binding of serum 37 to linear peptides of protein X3 of SARS-CoV Urbani / Binding of serum 37 to looped/cyclic peptides of protein X3 of SARS-CoV Urbani / Binding of serum 6 to linear peptides of protein X4 of SARS-CoV Urbani / Binding of serum 37 to linear peptides of protein X4 of SARS-CoV Urbani / Binding of serum 37 to looped/cyclic peptides of protein X4 of SARS-CoV Urbani / Binding of serum 6 to linear peptides of protein X5 of SARS-CoV Urbani / Binding of serum 37 to linear peptides of protein X5 of SARS-CoV Urbani / Binding of serum 37 to looped/cyclic peptides of protein X5 of SARS-CoV Urbani / Binding of serum 6 to linear peptides of protein N of SARS-CoV Urbani / Binding of serum 37 to linear peptides of protein N of SARS-CoV Urbani / Binding of serum 6 to linear peptide (PEPSCAN-ELISA) / Binding of serum 1a to looped/cyclic peptides of protein N of SARS-CoV Urbani / Binding of serum 1b to looped/cyclic peptides of protein N of SARS-CoV Urbani / Binding of serum 2 to looped/cyclic peptides of protein N of SARS-CoV Urbani / Binding of serum 6 to looped/cyclic peptides of protein N of SARS-CoV Urbani / Binding of serum 37 to looped/cyclic peptides of protein N of SARS-CoV Urbani / Binding of serum 62 to looped/cyclic peptides of protein N of SARS-CoV Urbani / Binding of serum London to looped/cyclic peptides of protein N of SARS-CoV Urbani / Binding of serum SARS-green to looped/cyclic peptides of protein N of SARS-CoV Urbani: unit not given here
[2] = tested on: control sera (pooled serum of ten healthy LUMC hospital workers; commercial negative donor pooled serum from the Dutch bloodbank); type: binding, human; set-up: Binding of Control serum LUMC to linear peptides / Binding of Control serum Blood-bank to linear peptides / Binding of Control serum LUMC to looped peptides / Binding of Control Serum Blood-Bank to Looped peptides / Binding of Control serum LUMC to linear peptides of the protein M of SARS-CoV Urbani / Binding of Control serum Blood-bank to linear peptides of the protein M of SARS-CoV Urbani / Binding of Control serum LUMC to looped peptides of the protein M of SARS-CoV Urbani / Binding of Control Serum Blood-Bank to Looped peptides of the protein M of SARS-CoV Urbani: unit not given here
[3] = tested on: rabbit serum obtained by immunizing a rabbit with the SARS-CoV strain Frankfurt 1; type: binding; set-up: Binding of a rabbit serum to linear peptides / Binding of a rabbit serum to looped peptides / Rabbit serum linear peptides / Rabbit serum looped peptides / Binding of a rabbit serum to linear peptides of protein N of SARS-CoV Urbani (Rabbit serum linear peptides) / Binding of a rabbit serum to looped/cyclic peptides of protein N of SARS-CoV Urbani (Rabbit serum looped peptides): unit not given here

Sequence: EAQFLYLYALIYFLQ
- Binding of serum 1a to linear peptides of protein X1 of SARS-CoV Urbani [1]: 0.7
- Binding of serum 1a to looped/cyclic peptide (PEPSCAN-ELISA) [1]: 0.5
- Binding of serum 1b to linear peptides of protein X1 of SARS-CoV Urbani [1]: 0.4
- Binding of serum 1b to looped/cyclic peptide (PEPSCAN-ELISA) [1]: 0.3
- Binding of serum 2 to linear peptides of protein X1 of SARS-CoV Urbani [1]: 0.6
- Binding of serum 2 to looped/cyclic peptide (PEPSCAN-ELISA) [1]: 0.4
- Binding of serum 6 to linear peptides of protein X1 of SARS-CoV Urbani [1]: 0.4
- Binding of serum 6 to looped/cyclic peptide (PEPSCAN-ELISA) [1]: 0.2
- Binding of serum 37 to linear peptides of protein X1 of SARS-CoV Urbani [1]: 0.5
- Binding of serum 37 to looped/cyclic peptide (PEPSCAN-ELISA) [1]: 0.5
- Binding of serum 62 to linear peptides of protein X1 of SARS-CoV Urbani [1]: 0.4
- Binding of serum 62 to looped/cyclic peptide (PEPSCAN-ELISA) [1]: 0.5
- Binding of serum London to linear peptides of protein X1 of SARS-CoV Urbani [1]: 0.2
- Binding of serum London to looped/cyclic peptide (PEPSCAN-ELISA) [1]: 0.2
- Binding of serum SARS-green to linear peptides of protein X1 of SARS-CoV Urbani [1]: 0.1
- Binding of serum SARS-green to looped/cyclic peptide (PEPSCAN-ELISA) [1]: 0.2
- Binding of serum SARS-yellow to linear peptides of protein X1 of SARS-CoV Urbani [1]: 0.2
- Binding of serum SARS-yellow to looped/cyclic peptide (PEPSCAN-ELISA) [1]: 0.3
- Binding of Control Serum Blood-Bank to Looped peptides [2]: 0.4
- Binding of Control serum Blood-bank to linear peptides [2]: 0.3
- Binding of Control serum LUMC to linear peptides [2]: 0.5
- Binding of Control serum LUMC to looped peptides [2]: 0.5
- Binding of a rabbit serum to linear peptides [3]: 0.1
- Binding of a rabbit serum to looped peptides [3]: 0.5

Sequence: LVIGFLFLAWIMLLQ
- Binding of serum 1a to linear peptides of protein M of SARS-CoV Urbani [1]: 0.7
- Binding of serum 1a to looped/cyclic peptides of protein M of SARS-CoV Urbani [1]: 0.7
- Binding of serum 1b to linear peptides of protein M of SARS-CoV Urbani [1]: 0.5
- Binding of serum 1b to looped/cyclic peptides of protein M of SARS-CoV Urbani [1]: 0.6
- Binding of serum 2 to linear peptides of protein M of SARS-CoV Urbani [1]: 0.5
- Binding of serum 2 to looped/cyclic peptides of protein M of SARS-CoV Urbani [1]: 0.8
- Binding of serum 6 to linear peptides of protein M of SARS-CoV Urbani [1]: 0.4
- Binding of serum 6 to looped/cyclic peptides of protein M of SARS-CoV Urbani [1]: 0.5
- Binding of serum 37 to linear peptides of protein M of SARS-CoV Urbani [1]: 0.4
- Binding of serum 37 to looped/cyclic peptides of protein M of SARS-CoV Urbani [1]: 0.7
- Binding of serum 62 to linear peptides of protein M of SARS-CoV Urbani [1]: 0.4
- Binding of serum 62 to looped/cyclic peptides of protein M of SARS-CoV Urbani [1]: 0.7
- Binding of serum London to linear peptides of protein M of SARS-CoV Urbani [1]: 0.3
- Binding of serum London to looped/cyclic peptides of protein M of SARS-CoV Urbani [1]: 0.2
- Binding of serum SARS-green to linear peptides of protein M of SARS-CoV Urbani [1]: 0.4
- Binding of serum SARS-green to looped/cyclic peptides of protein M of SARS-CoV Urbani [1]: 0.3
- Binding of serum SARS-yellow to linear peptides of protein M of SARS-CoV Urbani [1]: 0.1
- Binding of serum SARS-yellow to looped/cyclic peptides of protein M of SARS-CoV Urbani [1]: 0.7
- Binding of Control Serum Blood-Bank to Looped peptides of the protein M of SARS-CoV Urbani [2]: 0.6
- Binding of Control serum Blood-bank to linear peptides of the protein M of SARS-CoV Urbani [2]: 0.6
- Binding of Control serum LUMC to linear peptides of the protein M of SARS-CoV Urbani [2]: 0.5
- Binding of Control serum LUMC to looped peptides of the protein M of SARS-CoV Urbani [2]: 0.7
- Rabbit serum linear peptides [3]: 0.1
- Rabbit serum looped peptides [3]: 0.3
